Assays:
Type in all cases: in vivo
[1] = system: velvetleaf (Abutilon theophrasti); assay: Test G Post-Emergence Protocol; settings: Abutilon theophrasti, post-emergence, 312 h, read-out: Velvetleaf damage rating
How it was run: (§1)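 Values are percent visual injury at 13 days after treatment (0 none, 100 total). Treatment was a post-emergence spray at 15.625, 62.5 or 250 g/ha on 8-day-old pot plants kept at 24/16 °C.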

[2] = system: giant foxtail (Setaria faberi); assay: Test G Post-Emergence Protocol; settings: Setaria faberi, post-emergence, 312 h, read-out: Foxtail, Giant damage rating
How it was run: as §1

[3] = system: ivy-leaved morning glory (Ipomoea hederacea); assay: Test G Post-Emergence Protocol; settings: Ipomoea, post-emergence, 312 h, read-out: Morningglory, Ivy-leaved damage rating
How it was run: as §1

corn (Zea mays) [4] = assay: Test G Post-Emergence Protocol; settings: Zea mays, post-emergence, 312 h, read-out: Corn damage rating
How it was run: as §1

[5] = system: redroot pigweed (Amaranthus retroflexus); assay: Test G Post-Emergence Protocol; settings: Amaranthus retroflexus, post-emergence, 312 h, read-out: Pigweed, Redroot damage rating
How it was run: as §1

[6] = system: barnyardgrass (Echinochloa crus-galli); assay: Test G Post-Emergence Protocol; settings: Echinochloa crus-galli, post-emergence, 312 h, read-out: Barnyardgrass damage rating
How it was run: as §1

[7] = system: velvetleaf (Abutilon theophrasti); assay: Test G Pre-Emergence Protocol; settings: Abutilon theophrasti, pre-emergence, 312 h, evaluated after 13 days
How it was run: (§2)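 Spraying took place one day after sowing, at 15.625, 62.5 or 250 g/ha, using an acetone/water (50:50) spray solution containing 0.5% Tween 20. Plants were kept under glasshouse conditions (24/16 °C, 14 h light, 65% humidity, watered twice daily), and injury was rated 0–100 at day 13.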

[8] = system: giant foxtail (Setaria faberi); assay: Test G Pre-Emergence Protocol; settings: Setaria faberi, pre-emergence, 312 h, evaluated after 13 days
How it was run: as §2

[9] = system: ivy-leaved morning glory (Ipomoea hederacea); assay: Test G Pre-Emergence Protocol; settings: Ipomoea, pre-emergence, 312 h, evaluated after 13 days
How it was run: as §2

corn (Zea mays) [10] = assay: Test G Pre-Emergence Protocol; settings: Zea mays, pre-emergence, 312 h, evaluated after 13 days
How it was run: as §2

[11] = system: redroot pigweed (Amaranthus retroflexus); assay: Test G Pre-Emergence Protocol; settings: Amaranthus retroflexus, pre-emergence, 312 h, evaluated after 13 days
How it was run: as §2

[12] = system: barnyardgrass (Echinochloa crus-galli); assay: Test G Pre-Emergence Protocol; settings: Echinochloa crus-galli, pre-emergence, 312 h, evaluated after 13 days
How it was run: as §2

[13] = 15.625 g ai/ha, evaluated after 13 days (100=total damage to plant; 0=no damage to plant)
[14] = 62.5 g ai/ha, evaluated after 13 days, 100=total damage to plant, 0=no damage to plant
[15] = 250 g ai/ha, evaluated after 13 days, 100=total damage to plant, 0=no damage to plant

Cc1c[nH]nc1NC(=O)[C@@H]1C(=O)N(C)C[C@H]1c1ccc(C(F)(F)F)cc1 (racemic) [Compound 1660]
0%: pest or weed control at 15.625 g/ha [1, 13] | pest or weed control at 62.5 g/ha [1, 14] | pest or weed control at 250 g/ha [1, 15] | pest or weed control at 15.625 g/ha [2, 13] | pest or weed control at 62.5 g/ha [2, 14] | pest or weed control at 250 g/ha [2, 15] | pest or weed control at 15.625 g/ha [3, 13] | pest or weed control at 62.5 g/ha [3, 14] | pest or weed control at 250 g/ha [3, 15] | plant injury at 15.625 g/ha (corn (Zea mays) [4]; [13]) | plant injury at 62.5 g/ha (corn (Zea mays) [4]; [14]) | plant injury at 250 g/ha (corn (Zea mays) [4]; [15]) | pest or weed control at 15.625 g/ha [5, 13] | pest or weed control at 62.5 g/ha [5, 14] | pest or weed control at 250 g/ha [5, 15] | pest or weed control at 15.625 g/ha [6, 13] | pest or weed control at 62.5 g/ha [6, 14] | pest or weed control at 250 g/ha [6, 15] | pest or weed control at 15.625 g/ha ([7]; 15.625 g ai/ha, read-out: Velvetleaf damage rating (100=total damage to plant; 0=no damage to plant)) | pest or weed control at 62.5 g/ha ([7]; 62.5 g ai/ha, 100=total damage to plant, 0=no damage to plant, read-out: Velvetleaf damage rating) | pest or weed control at 250 g/ha ([7]; 250 g ai/ha, read-out: Velvetleaf damage rating (100=total damage to plant; 0=no damage to plant)) | pest or weed control at 15.625 g/ha ([8]; 15.625 g ai/ha, read-out: Foxtail, Giant damage rating (100=total damage to plant; 0=no damage to plant)) | pest or weed control at 62.5 g/ha ([8]; 62.5 g ai/ha, 100=total damage to plant, 0=no damage to plant, read-out: Foxtail, Giant damage rating) | pest or weed control at 250 g/ha ([8]; 250 g ai/ha, read-out: Foxtail, Giant damage rating (100=total damage to plant; 0=no damage to plant)) | pest or weed control at 15.625 g/ha ([9]; 15.625 g ai/ha, read-out: Morningglory, Ivy-leaved damage rating (100=total damage to plant; 0=no damage to plant)) | pest or weed control at 62.5 g/ha ([9]; 62.5 g ai/ha, 100=total damage to plant, 0=no damage to plant, read-out: Morningglory, Ivy-leaved damage rating) | pest or weed control at 250 g/ha ([9]; 250 g ai/ha, read-out: Morningglory, Ivy-leaved damage rating (100=total damage to plant; 0=no damage to plant)) | plant injury at 15.625 g/ha (corn (Zea mays) [10]; 15.625 g ai/ha, read-out: Corn damage rating (100=total damage to plant; 0=no damage to plant)) | plant injury at 62.5 g/ha (corn (Zea mays) [10]; 62.5 g ai/ha, 100=total damage to plant, 0=no damage to plant, read-out: Corn damage rating) | plant injury at 250 g/ha (corn (Zea mays) [10]; 250 g ai/ha, read-out: Corn damage rating (100=total damage to plant; 0=no damage to plant)) | pest or weed control at 15.625 g/ha ([11]; 15.625 g ai/ha, read-out: Pigweed, Redroot damage rating (100=total damage to plant; 0=no damage to plant)) | pest or weed control at 62.5 g/ha ([11]; 62.5 g ai/ha, 100=total damage to plant, 0=no damage to plant, read-out: Pigweed, Redroot damage rating) | pest or weed control at 250 g/ha ([11]; 250 g ai/ha, read-out: Pigweed, Redroot damage rating (100=total damage to plant; 0=no damage to plant)) | pest or weed control at 15.625 g/ha ([12]; 15.625 g ai/ha, read-out: Barnyardgrass damage rating (100=total damage to plant; 0=no damage to plant)) | pest or weed control at 62.5 g/ha ([12]; 62.5 g ai/ha, 100=total damage to plant, 0=no damage to plant, read-out: Barnyardgrass damage rating) | pest or weed control at 250 g/ha ([12]; 250 g ai/ha, read-out: Barnyardgrass damage rating (100=total damage to plant; 0=no damage to plant))

From patent US12077503B2, “Substituted cyclic amides and their use as herbicides” (FMC CORPORATION, priority 2015, dated 2024)
